{"source": "ChEMBL document CHEMBL1137334", "about": "(J Med Chem, 2006)", "key": {"[1]": {"assay": "Inhibition of PI3K", "design": "species or system Homo sapiens"}, "[2]": {"assay": "Lipophilicity, log D at pH 7.4", "format": "physicochemical", "settings": "buffer"}, "[3]": {"assay": "Aqueous solubility at pH 7.0", "format": "physicochemical"}, "A549 [4]": {"tested_on": "A549", "assay": "Inhibition of A549 cell migration by microdroplet migration assay", "format": "functional, cell-based", "settings": "Homo sapiens"}, "[5]": {"assay": "Permeability from apical to basolateral side of NIH 3T3 cell", "format": "ADME, cell-based, NIH3T3", "settings": "mouse, not told; read-out: permeability"}, "[6]": {"assay": "Volume of distribution in male dog", "format": "ADME, organism-based, Canis lupus familiaris", "settings": "male, in vivo, read-out: Vdss"}, "[7]": {"assay": "Bioavailability in male dog", "format": "ADME, organism-based, Canis lupus familiaris", "settings": "in vivo"}, "[8]": {"biological_target": "Vascular endothelial growth factor receptor 1 (Homo sapiens, UniProt P17948)", "sequence (P17948 whole entry)": "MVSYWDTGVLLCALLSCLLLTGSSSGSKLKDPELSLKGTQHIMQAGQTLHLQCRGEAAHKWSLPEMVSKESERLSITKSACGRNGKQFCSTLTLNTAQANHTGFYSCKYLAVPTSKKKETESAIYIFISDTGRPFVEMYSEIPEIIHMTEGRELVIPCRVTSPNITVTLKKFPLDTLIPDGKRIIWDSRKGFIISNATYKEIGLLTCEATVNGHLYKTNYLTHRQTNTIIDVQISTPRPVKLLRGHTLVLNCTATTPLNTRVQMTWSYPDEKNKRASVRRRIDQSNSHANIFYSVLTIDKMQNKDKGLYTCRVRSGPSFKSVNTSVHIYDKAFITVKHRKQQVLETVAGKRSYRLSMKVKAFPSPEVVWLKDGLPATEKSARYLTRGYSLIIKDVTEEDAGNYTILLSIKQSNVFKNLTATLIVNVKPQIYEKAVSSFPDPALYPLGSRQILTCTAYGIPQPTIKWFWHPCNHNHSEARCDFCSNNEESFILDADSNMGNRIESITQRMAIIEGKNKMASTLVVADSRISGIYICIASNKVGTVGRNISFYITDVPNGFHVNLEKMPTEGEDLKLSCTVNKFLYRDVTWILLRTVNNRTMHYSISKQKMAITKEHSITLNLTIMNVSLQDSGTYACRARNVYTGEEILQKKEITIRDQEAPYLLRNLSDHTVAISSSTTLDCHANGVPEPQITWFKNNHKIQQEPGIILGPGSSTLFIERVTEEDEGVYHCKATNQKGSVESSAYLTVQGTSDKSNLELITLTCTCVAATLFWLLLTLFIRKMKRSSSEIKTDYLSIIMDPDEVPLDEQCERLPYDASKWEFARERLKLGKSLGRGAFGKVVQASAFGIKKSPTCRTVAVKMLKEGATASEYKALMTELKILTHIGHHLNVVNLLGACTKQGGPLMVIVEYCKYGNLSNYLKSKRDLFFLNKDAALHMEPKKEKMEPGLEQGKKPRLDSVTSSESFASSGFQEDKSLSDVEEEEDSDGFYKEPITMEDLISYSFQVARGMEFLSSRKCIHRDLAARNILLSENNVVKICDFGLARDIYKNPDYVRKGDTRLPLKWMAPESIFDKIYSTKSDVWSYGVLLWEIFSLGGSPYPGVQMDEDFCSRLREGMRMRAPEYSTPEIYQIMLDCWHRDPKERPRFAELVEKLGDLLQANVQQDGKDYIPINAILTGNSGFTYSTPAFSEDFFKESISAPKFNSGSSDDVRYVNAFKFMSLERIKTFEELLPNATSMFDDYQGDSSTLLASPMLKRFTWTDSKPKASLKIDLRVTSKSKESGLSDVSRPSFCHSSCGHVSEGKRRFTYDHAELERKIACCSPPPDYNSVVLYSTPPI", "assay": "Inhibition of recombinant FLT1 by ELISA"}, "[9]": {"assay": "Inhibition of Chk", "design": "species or system Homo sapiens"}, "[10]": {"assay": "Percent of unbound ligand in rat plasma", "format": "ADME, organism-based"}, "[11]": {"biological_target": "3-phosphoinositide-dependent protein kinase 1 (Homo sapiens, UniProt O15530)", "assay": "Inhibition of PDK"}, "[12]": {"assay": "Volume of distribution in male rat at 25 mg/kg, po and 2 mg/kg, iv", "format": "ADME, organism-based", "settings": "in vivo, read-out: Vdss"}, "HUVEC [13]": {"tested_on": "HUVEC", "assay": "Inhibition of VEGF-stimulated HUVEC cell growth", "format": "functional, cell-based", "settings": "Homo sapiens"}, "Calu-6 [14]": {"tested_on": "Calu-6", "assay": "Inhibition of paxillin phosphorylation in Calu-6 xenograft tumor model at 20 mg/kg/day, po", "format": "functional", "settings": "Homo sapiens"}, "[15]": {"biological_target": "Tyrosine-protein kinase CSK (Homo sapiens, UniProt P41240)", "sequence (P41240 whole entry)": "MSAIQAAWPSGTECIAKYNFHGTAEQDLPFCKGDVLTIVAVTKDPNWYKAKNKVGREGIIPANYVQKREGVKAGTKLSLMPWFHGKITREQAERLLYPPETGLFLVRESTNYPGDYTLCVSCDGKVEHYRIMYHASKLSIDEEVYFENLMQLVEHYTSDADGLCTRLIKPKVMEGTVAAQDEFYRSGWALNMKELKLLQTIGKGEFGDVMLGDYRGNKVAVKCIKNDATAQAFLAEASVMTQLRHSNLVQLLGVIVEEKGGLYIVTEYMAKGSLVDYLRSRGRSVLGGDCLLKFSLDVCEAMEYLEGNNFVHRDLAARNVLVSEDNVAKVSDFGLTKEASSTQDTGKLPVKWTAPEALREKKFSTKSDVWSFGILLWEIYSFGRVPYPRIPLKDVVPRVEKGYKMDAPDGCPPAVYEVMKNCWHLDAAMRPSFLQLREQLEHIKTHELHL", "assay": "Inhibition of recombinant CSK by ELISA"}, "[16]": {"assay": "Dissociation constant, pKa of the basic side chain of compound", "format": "physicochemical"}, "[17]": {"assay": "Terminal half life in po dosed human", "format": "ADME, organism-based", "settings": "in vivo, read-out: beta t1/2 (converted)"}, "[18]": {"assay": "Percent of unbound ligand in dog plasma", "format": "ADME, organism-based, Canis lupus familiaris"}, "HUVEC [19]": {"tested_on": "HUVEC", "assay": "Inhibition of FGF-stimulated HUVEC cell growth", "format": "functional, cell-based", "settings": "Homo sapiens"}, "[20]": {"assay": "(§1) Half life in rat at 25 mg/kg, po and 2 mg/kg, iv", "format": "ADME, organism-based", "settings": "in vivo"}, "K562": {"tested_on": "K562", "assay": "Antiproliferative activity against huamn K562 cell line", "format": "functional, cell-based", "settings": "Homo sapiens"}, "[21]": {"biological_target": "cAMP-dependent protein kinase (PKA) (Homo sapiens, UniProt P22694+P17612+P22612)", "assay": "Inhibition of PKA", "format": "protein assay"}, "[22]": {"biological_target": "Fibroblast growth factor receptor 1 (Homo sapiens, UniProt P11362)", "sequence (P11362 whole entry)": "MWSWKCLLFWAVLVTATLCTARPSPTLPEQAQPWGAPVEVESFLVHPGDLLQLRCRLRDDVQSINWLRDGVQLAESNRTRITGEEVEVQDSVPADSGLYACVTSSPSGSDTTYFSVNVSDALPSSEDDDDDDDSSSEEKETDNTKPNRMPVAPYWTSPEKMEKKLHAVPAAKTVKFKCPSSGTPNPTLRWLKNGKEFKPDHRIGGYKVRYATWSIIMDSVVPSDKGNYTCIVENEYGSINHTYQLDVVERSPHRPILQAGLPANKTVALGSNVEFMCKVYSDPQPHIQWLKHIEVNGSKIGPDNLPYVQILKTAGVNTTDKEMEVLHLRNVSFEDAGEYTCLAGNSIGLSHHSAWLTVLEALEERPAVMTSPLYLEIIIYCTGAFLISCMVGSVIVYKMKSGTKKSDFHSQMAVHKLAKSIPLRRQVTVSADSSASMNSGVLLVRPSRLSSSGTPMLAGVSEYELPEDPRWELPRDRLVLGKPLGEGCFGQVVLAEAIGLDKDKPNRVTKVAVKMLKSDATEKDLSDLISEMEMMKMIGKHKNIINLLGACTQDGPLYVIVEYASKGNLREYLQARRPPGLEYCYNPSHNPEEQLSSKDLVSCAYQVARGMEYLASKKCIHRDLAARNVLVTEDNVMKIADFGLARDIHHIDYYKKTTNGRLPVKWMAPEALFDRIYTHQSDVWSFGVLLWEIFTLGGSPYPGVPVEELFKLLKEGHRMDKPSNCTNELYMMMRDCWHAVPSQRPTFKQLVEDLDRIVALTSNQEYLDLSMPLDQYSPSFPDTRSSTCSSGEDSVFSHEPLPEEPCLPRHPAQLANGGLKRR", "assay": "Inhibition of recombinant FGFR1 by ELISA"}, "Calu-6 [23]": {"tested_on": "Calu-6", "assay": "Inhibition of FAK phosphorylation in Calu-6 xenograft tumor model at 20 mg/kg/day, po", "format": "functional", "settings": "Homo sapiens"}, "[24]": {"assay": "AUC (0-24h) in mouse at 20 mg/kg, po", "format": "ADME, organism-based", "design": "time < 24 hr, dose 20 mg/kg, route oral", "settings": "plasma"}, "[25]": {"biological_target": "Cyclin-dependent kinase 2 (Homo sapiens, UniProt P24941)", "assay": "Inhibition of CDK2 by SPA"}, "[26]": {"assay": "Clearance in male rat at 25 mg/kg, po and 2 mg/kg, iv", "format": "ADME, organism-based", "settings": "in vivo"}, "[27]": {"assay": "Bioavailability in female rat at 25 mg/kg, po and 2 mg/kg, iv", "format": "ADME, organism-based", "settings": "in vivo"}, "[28]": {"biological_target": "Vascular endothelial growth factor receptor 2 (Homo sapiens, UniProt P35968)", "assay": "Inhibition of KDR"}, "A549 [29]": {"tested_on": "A549", "assay": "Inhibition of paxillin phosphorylation in A549 cells by Western blotting at 1 uM", "format": "functional", "settings": "Homo sapiens"}, "[30]": {"assay": "Clearance in male dog", "format": "ADME, organism-based, Canis lupus familiaris", "settings": "in vivo"}, "[31]": {"assay": "Volume of distribution in female rat at 25 mg/kg, po and 2 mg/kg, iv", "format": "ADME, organism-based", "settings": "in vivo, read-out: Vdss"}, "[32]": {"assay": "Clearance in female rat at 25 mg/kg, po and 2 mg/kg, iv", "format": "ADME, organism-based", "settings": "in vivo"}, "NIH3T3": {"tested_on": "NIH3T3", "assay": "Antiproliferative activity against NIH 3T3 cells xenografted in athymic rat measured as inhibition of tumor volume at 6 mg/kg/day after 18 days", "format": "functional", "settings": "NIH3T3, 432 h"}, "[33]": {"biological_target": "Platelet-derived growth factor receptor alpha (Homo sapiens, UniProt P16234)", "assay": "Inhibition of recombinant PDGFRalpha by ELISA"}, "[34]": {"biological_target": "Vascular endothelial growth factor receptor 3 (Homo sapiens, UniProt P35916)", "sequence (P35916 whole entry)": "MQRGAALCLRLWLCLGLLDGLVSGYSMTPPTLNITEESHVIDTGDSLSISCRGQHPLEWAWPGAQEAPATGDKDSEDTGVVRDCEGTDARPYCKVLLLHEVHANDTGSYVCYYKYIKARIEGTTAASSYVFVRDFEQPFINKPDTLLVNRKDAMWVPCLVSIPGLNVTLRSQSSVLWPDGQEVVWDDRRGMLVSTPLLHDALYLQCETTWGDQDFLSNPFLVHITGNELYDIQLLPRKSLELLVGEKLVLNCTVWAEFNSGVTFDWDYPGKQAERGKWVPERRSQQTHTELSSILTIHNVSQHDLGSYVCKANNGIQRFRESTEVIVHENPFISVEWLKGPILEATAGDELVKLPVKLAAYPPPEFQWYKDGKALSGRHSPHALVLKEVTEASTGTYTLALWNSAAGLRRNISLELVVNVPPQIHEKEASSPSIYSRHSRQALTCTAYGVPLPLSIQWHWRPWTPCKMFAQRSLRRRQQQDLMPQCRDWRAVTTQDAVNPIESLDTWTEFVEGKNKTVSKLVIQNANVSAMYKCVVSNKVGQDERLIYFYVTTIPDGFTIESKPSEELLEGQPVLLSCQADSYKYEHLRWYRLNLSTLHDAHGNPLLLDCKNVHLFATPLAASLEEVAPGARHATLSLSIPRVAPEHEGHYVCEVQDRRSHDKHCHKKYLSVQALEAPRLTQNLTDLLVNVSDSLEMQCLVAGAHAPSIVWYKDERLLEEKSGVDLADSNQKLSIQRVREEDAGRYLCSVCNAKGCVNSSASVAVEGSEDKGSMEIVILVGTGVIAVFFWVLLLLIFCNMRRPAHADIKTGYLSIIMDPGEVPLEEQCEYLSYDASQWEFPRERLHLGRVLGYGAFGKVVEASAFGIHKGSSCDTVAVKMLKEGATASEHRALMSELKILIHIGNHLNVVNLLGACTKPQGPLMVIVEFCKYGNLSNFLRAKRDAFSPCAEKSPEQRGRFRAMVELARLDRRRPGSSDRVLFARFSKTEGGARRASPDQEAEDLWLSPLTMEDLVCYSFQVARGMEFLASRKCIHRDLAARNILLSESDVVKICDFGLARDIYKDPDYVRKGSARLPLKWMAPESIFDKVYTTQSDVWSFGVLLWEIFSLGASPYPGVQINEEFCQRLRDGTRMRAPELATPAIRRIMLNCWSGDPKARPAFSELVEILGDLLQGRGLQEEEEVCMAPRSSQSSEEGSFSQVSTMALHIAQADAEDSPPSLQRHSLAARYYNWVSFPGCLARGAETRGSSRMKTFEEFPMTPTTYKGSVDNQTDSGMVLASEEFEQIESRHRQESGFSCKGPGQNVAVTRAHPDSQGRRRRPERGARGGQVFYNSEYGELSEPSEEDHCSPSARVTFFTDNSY", "assay": "Inhibition of FLT4 by ELISA"}, "[35]": {"assay": "Half life in male dog", "format": "ADME, organism-based, Canis lupus familiaris", "settings": "male, in vivo"}, "[36]": {"assay": "as §1", "format": "ADME, organism-based", "settings": "in vivo", "remark": "listed apart in the source"}, "[37]": {"biological_target": "Dual specificity mitogen-activated protein kinase kinase; MEK1/2 (Homo sapiens, UniProt P36507+Q02750)", "assay": "Inhibition of MAPKK", "format": "protein assay"}, "[38]": {"biological_target": "c-Jun N-terminal kinase, JNK (Homo sapiens, UniProt P45983+P53779+P45984)", "assay": "Inhibition of JNK", "format": "protein assay"}, "[39]": {"biological_target": "Glycogen synthase kinase-3 beta (Homo sapiens, UniProt P49841)", "sequence (P49841 whole entry)": "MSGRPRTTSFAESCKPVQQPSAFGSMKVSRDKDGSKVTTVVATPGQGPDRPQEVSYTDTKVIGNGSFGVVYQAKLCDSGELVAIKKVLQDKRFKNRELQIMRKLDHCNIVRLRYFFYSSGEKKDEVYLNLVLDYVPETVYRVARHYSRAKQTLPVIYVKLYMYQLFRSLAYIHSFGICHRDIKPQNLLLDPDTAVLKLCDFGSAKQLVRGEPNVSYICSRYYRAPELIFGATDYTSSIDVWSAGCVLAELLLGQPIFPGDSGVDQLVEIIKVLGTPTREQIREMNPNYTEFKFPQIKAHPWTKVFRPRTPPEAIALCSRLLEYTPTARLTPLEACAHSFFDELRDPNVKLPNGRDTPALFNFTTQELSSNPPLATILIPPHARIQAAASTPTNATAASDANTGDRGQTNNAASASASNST", "assay": "Inhibition of GSK3-beta"}, "[40]": {"assay": "Percent of unbound ligand in human plasma", "format": "ADME, organism-based"}, "Aurora kinase B": {"biological_target": "Aurora kinase B (Homo sapiens, UniProt Q96GD4)", "sequence (Q96GD4 whole entry)": "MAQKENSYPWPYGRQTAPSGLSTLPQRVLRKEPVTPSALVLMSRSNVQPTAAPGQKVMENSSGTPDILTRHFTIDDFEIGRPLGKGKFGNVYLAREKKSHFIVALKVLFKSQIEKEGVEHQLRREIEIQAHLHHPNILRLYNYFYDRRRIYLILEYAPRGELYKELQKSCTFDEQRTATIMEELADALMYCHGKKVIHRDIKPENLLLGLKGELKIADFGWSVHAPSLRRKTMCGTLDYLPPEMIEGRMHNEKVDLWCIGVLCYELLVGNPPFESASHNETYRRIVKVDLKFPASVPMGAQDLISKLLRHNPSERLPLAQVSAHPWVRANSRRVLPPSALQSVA", "assay": "Inhibition of recombinant Aurora B by ELISA"}, "[41]": {"assay": "Bioavailability in male rat at 25 mg/kg, po and 2 mg/kg, iv", "format": "ADME, organism-based", "settings": "in vivo"}}}
{"compound": "CN1CCN(CCOc2cc(OC3CCOCC3)c3c(Nc4c(Cl)ccc5c4OCO5)ncnc3c2)CC1", "note": "[SARACATINIB]", "values": [{"measurement": "IC50", "setting": "[1]", "result": "> 10", "unit": "µM"}, {"measurement": "logD", "setting": "[2]", "result": 2.9}, {"measurement": "solubility", "setting": "[3]", "result": 240, "unit": "µM"}, {"measurement": "IC50", "setting": "A549 [4]", "result": 0.14, "unit": "µM"}, {"measurement": "Papp A→B", "setting": "[5]", "result": "> 30", "unit": "×10⁻⁶ cm/s"}, {"measurement": "Vd", "setting": "[6]", "result": 11.6, "unit": "L/kg"}, {"measurement": "bioavailability", "setting": "[7]", "result": "> 50", "unit": "%"}, {"measurement": "IC50", "setting": "[8]", "result": "> 100", "unit": "µM"}, {"measurement": "IC50", "setting": "[9]", "result": "> 10", "unit": "µM"}, {"measurement": "fraction unbound", "setting": "[10]", "result": 0.13}, {"measurement": "IC50", "setting": "[11]", "result": "> 10", "unit": "µM"}, {"measurement": "Vd", "setting": "[12]", "result": 10, "unit": "L/kg"}, {"measurement": "IC50", "setting": "HUVEC [13]", "result": "> 5", "unit": "µM"}, {"measurement": "inhibition in vivo at 20 mg/kg/day", "setting": "Calu-6 [14]", "result": "> 80", "unit": "%"}, {"measurement": "IC50", "setting": "[15]", "result": 0.84, "unit": "µM"}, {"measurement": "pKa", "setting": "[16]", "result": 7.98}, {"measurement": "half-life", "setting": "[17]", "result": 40, "unit": "h"}, {"measurement": "fraction unbound", "setting": "[18]", "result": 0.14}, {"measurement": "IC50", "setting": "HUVEC [19]", "result": "> 5", "unit": "µM"}, {"measurement": "half-life", "setting": "[20]", "result": 5, "unit": "h"}, {"measurement": "IC50", "setting": "K562", "result": 0.22, "unit": "µM"}, {"measurement": "IC50", "setting": "[21]", "result": "> 10", "unit": "µM"}, {"measurement": "IC50", "setting": "[22]", "result": "> 10", "unit": "µM"}, {"measurement": "inhibition in vivo at 20 mg/kg/day", "setting": "Calu-6 [23]", "result": "> 80", "unit": "%"}, {"measurement": "AUC(0-t) at 24 h", "setting": "[24]", "result": 12000, "unit": "ng·h/mL"}, {"measurement": "IC50", "setting": "[25]", "result": 10, "unit": "µM"}, {"measurement": "clearance", "setting": "[26]", "result": 20, "unit": "mL/min/kg"}, {"measurement": "bioavailability", "setting": "[27]", "result": 92, "unit": "%"}, {"measurement": "IC50", "setting": "[28]", "result": 20.9, "unit": "µM"}, {"measurement": "inhibition at 1 µM", "setting": "A549 [29]", "result": 70, "unit": "%"}, {"measurement": "clearance", "setting": "[30]", "result": 11.7, "unit": "mL/min/kg"}, {"measurement": "Vd", "setting": "[31]", "result": 10, "unit": "L/kg"}, {"measurement": "clearance", "setting": "[32]", "result": 16.7, "unit": "mL/min/kg"}, {"measurement": "inhibition in vivo at 6 mg/kg/day", "setting": "NIH3T3", "result": "> 95", "unit": "%"}, {"measurement": "IC50", "setting": "[33]", "result": 10, "unit": "µM"}, {"measurement": "IC50", "setting": "[34]", "result": "> 10", "unit": "µM"}, {"measurement": "half-life", "setting": "[35]", "result": 7, "unit": "h"}, {"measurement": "half-life", "setting": "[36]", "result": 5, "unit": "h"}, {"measurement": "IC50", "setting": "[37]", "result": 14, "unit": "µM"}, {"measurement": "IC50", "setting": "[38]", "result": "> 10", "unit": "µM"}, {"measurement": "IC50", "setting": "[39]", "result": "> 10", "unit": "µM"}, {"measurement": "fraction unbound", "setting": "[40]", "result": 0.09}, {"measurement": "IC50", "setting": "Aurora kinase B", "result": "> 10", "unit": "µM"}, {"measurement": "bioavailability", "setting": "[41]", "result": 79, "unit": "%"}]}
